In US4478841A, “3-[2-(Tetra- and Hexa- hydro-4-pyridyl)-ethyl]-indoles and their use as medicaments” (Pharmuka Laboratoires, priority 1981, dated 1984) one finds IC50, activation and LD50 data, which are given here for 6 molecules.

In data set [1] the test system is serotonin uptake, human blood platelets. Put plainly: Inhibition of serotonin uptake by human blood platelets. The settings on record: Platelet, read-out: Inhibition of serotonin uptake I50. In kind it is cell-based. From the text:
It is known that serotonin uptake by the blood platelets is a good model of the uptake of this amine by the neurons (cf. J. Tuomisto, J. Pharm., Pharmac., 26, 92 (1974). When applied to the study of medicaments, a method involving the use of blood platelets is of great interest because it allows the use of human cells so that its anticipation character is good.
The capacity of products to inhibit serotonin uptake or to induce serotonin release, was shown on human blood platelets, according to J. L. David and Coll. "Platelets Function and Thrombosis, a Review of Methods" p. 335 (Plenum Press, London, 1972).
1. Inhibition of Serotonin uptake
The results are expressed by a 50% inhibiting dose or I50 which represents the product dose, in micromoles per liter, which reduces the rate of serotonin uptake by 50%.

Data set [2] relates to serotonin release, human blood platelets. In words: Serotonin release from human blood platelets. In kind it is cell-based. The settings on record: Platelet, product concentration 5 × 10^-5 moles per liter, relative to controls, read-out: Percent of increased serotonin release. As to the method:
"Platelets Function and Thrombosis, a Review of Methods" p.
The action of the products on serotonin release is tested at a concentration of 5×10^-5 moles per liter.

Data set [3] can be described thus: Acute oral toxicity in male CD1 mice. The settings on record: mouse, in vivo, 3 days of observation. Here is the method:
The acute toxicity of the products has been established in the male CD1 (Charles RIVER) mice following oral administration. The LD50 calculated following 3 days of observation by the cumulative method of J. J. Reed and Coll. (Am. J. Hyg. 27, 493-1938) is 600 mg/kg for compounds of Examples 1 and 2 and about 400 mg/kg for the compound of Example 4.

Structures are written as SMILES. Where two headings read alike, the source gives them in different places.

What is called LD50 is the dose at which mortality reaches 50%.

As to `C1=C(CCc2c[nH]c3ccccc23)CCNC1` [Example 1, 3-[2-(1,2,5,6-tetrahydro-4-pyridyl)-ethyl]-indole], the IC50 in data set [1] (Homo sapiens) is 55 nM. Further, the activation at 50 µM in data set [2] worked out at 85%. This molecule also came in with an LD50 at 72 h in data set [3] of 600 mg/kg.

On to `CC(Cc1c[nH]c2ccccc12)C1=CCNCC1` (stereo not drawn) [Example 2, 3-[2-(1,2,5,6-tetrahydro-4-pyridyl)-2-methyl-ethyl]-indole], for which the IC50 in data set [1] (Homo sapiens) was 40 nM. The activation at 50 µM in data set [2] was 68%. Moreover, in data set [3], the LD50 at 72 h stood at 600 mg/kg.

For the molecule `CC(Cc1c[nH]c2ccccc12)C1CCNCC1` (stereo not drawn) [Example 4, 3-[2-(4-piperidyl)-2-methyl-ethyl]-indole], in data set [1] (Homo sapiens), the IC50 was determined as 10 nM. The activation at 50 µM in data set [2] was found to be 76%. The molecule also returned an LD50 at 72 h in data set [3] of approximately 400 mg/kg.

Consider `CN(C)CCCN1c2ccccc2CCc2ccccc21` [Imipramine, imipramine, reference compound], for which the IC50 in data set [1] (Homo sapiens) stood at 400 nM. The activation at 50 µM in data set [2] turned out to be 13%.

For the molecule `c1ccc2c(CCC3CCNCC3)c[nH]c2c1` [Indalpine, 3-[2-(4-piperidyl)-ethyl]-indole, reference compound], the IC50 in data set [1] (human blood platelets, dose reducing the rate of serotonin uptake by 50%) amounted to 35 nM. Besides, in data set [2], the activation at 50 µM was 22%.

For `CC(N)Cc1ccc(Cl)cc1` (stereo not drawn) [p-chloro-amphetamine, p-chloroamphetamine, reference compound], the IC50 in data set [1] (Homo sapiens) amounted to 12000 nM. Further, the activation at 50 µM in data set [2] stood at 51%.
